Results on five compounds are retold here after patent US8575199B2, “Formula (IA″) compounds comprising (piperidin-4-yl)pyridine or (1,2,3,6-tetrahydropyridin-4-4yl) as TRPV1 antagonists” (Purdue Pharma L.P., priority 2007, dated 2013).

≈ marks a conversion by molar mass, not a printed value. Read-outs that look alike come from different tables or passages of the source.

By solubility is commonly meant how much of the substance goes into solution per volume. In general, IC50 refers to the point on the concentration scale where inhibition reaches its midpoint.

Data set [1] is described as follows: Aqueous solubility at pH 6.8 or pH 1.2. The class given is physicochemical. Conditions: aqueous solution.
The target in a further data set is T1, human recombinant TRPV1 (Homo sapiens, UniProt Q8NER1).
T1 construct: using primers designed surrounding the complete hTRPV1 open reading frame; expressed in transfected cells; host or cells: CHO-K1 cells stably transfected with pcDNA3.1(-)-hVR1 plasmid
T1 sequence (Q8NER1 whole entry): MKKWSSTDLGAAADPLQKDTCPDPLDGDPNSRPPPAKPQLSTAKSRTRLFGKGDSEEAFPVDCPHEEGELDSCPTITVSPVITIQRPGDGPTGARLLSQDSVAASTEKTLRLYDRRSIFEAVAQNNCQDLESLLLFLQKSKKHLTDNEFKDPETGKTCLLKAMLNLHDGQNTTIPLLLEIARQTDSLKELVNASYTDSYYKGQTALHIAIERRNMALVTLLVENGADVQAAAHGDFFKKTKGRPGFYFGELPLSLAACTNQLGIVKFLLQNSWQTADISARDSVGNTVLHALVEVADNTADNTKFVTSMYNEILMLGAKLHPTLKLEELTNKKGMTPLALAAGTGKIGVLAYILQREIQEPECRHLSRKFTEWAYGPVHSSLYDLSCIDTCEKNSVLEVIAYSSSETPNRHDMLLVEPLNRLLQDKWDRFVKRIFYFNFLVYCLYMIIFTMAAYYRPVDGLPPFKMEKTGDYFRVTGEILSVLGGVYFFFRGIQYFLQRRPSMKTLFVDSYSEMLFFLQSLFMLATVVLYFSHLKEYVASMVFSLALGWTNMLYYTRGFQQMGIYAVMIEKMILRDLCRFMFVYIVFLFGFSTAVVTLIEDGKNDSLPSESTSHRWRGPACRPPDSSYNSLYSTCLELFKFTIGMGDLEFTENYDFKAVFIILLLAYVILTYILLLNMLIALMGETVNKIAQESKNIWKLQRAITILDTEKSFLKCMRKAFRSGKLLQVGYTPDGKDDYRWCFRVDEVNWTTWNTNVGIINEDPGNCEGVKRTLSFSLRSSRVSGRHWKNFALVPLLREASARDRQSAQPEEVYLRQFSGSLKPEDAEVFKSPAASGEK
Description: pH-based assay, Protocol 2 (hpH-CHO), Ca2+ influx by Fura-2 AM/FDSS-3000 in TRPV1/CHO cells. The class given is cell-based. Conditions: H2SO4 agonist, pH 5.0-5.1, mean ± standard error of the mean (number of trials), read-out: TRPV1 IC50 Potency, Human pH CHO (hpH-CHO). The text has this: For Protocol 2, a Chinese Hamster Ovary cell line (CHO) that has been engineered to constitutively express human recombinant TRPV1 was used (TRPV1/CHO cells). The TRPV1/CHO cell line was generated as described below.
The resulting PCR products were purified from agarose gels using Gel Band Purification Kit (GE Healthcare Bioscience) and were subcloned into pCR-Blunt vector (Invitrogen). The cloned cDNA was fully sequenced using a fluorescent dye-terminator reagent (BigDye Terminator ver3.1 Cycle Sequencing Kit, Applied Biosystems) and ABI Prism 3100 genetic analyzer (Applied Biosystems). The pCR-Blunt vector containing the hTRPV1 cDNA was subjected to restriction digestion with EcoR1. […] The sequence of the cDNA encoding TRPV1 is available at GenBank accession number AJ277028. […]
(5) The Fura-2 fluorescent intensity was monitored at a wavelength of 340 nm and at 380 nm, respectively, at a rate of 0.5 Hz for a total of 240 seconds. […]
(6) Fluorescence intensity ratio refers to the fluorescence intensity at 340 nm over the fluorescence intensity at 380 nm at a particular time point. […]
(7) Maximal signal ratios from each well were calculated as output data using the FDSS-3000 analysis program. Data were analyzed using Excel (Microsoft) and XLfit (idbs) software.

Setting [2] is: pH 1.2, simulated gastric fluid, read-out: aqueous solubility at pH 1.2.
Setting [3] is: pH 6.8, aqueous buffer, read-out: aqueous solubility at pH 6.8.

`O=C(Nc1ccc(C(F)(F)F)c(F)c1)N1CCC(F)(c2ncccc2Cl)CC1` [Compound 209]: the solubility was 9.3 µM (≈ 3.9 µg/mL) in data set [1] (setting [2]) and 1 µM (≈ 0.42 µg/mL) in data set [1] (setting [3]).

As to `O=C(Nc1ccc(C(F)(F)F)c(Cl)c1)N1CCC(F)(c2ncc([C@H](O)CO)cc2F)CC1` [Compound Q3], at human recombinant TRPV1, the IC50 was 5.3 ± 1 nM. Turning to `O=C(Nc1ccc(C(F)(F)F)c(Cl)c1)N1CC=C(c2ncccc2F)CC1` [Compound 215], the solubility was 9.6 µM (≈ 3.84 µg/mL) in data set [1] (setting [2]) and 0.6 µM (≈ 0.24 µg/mL) in data set [1] (setting [3]).

Take `O=C(Nc1ccc(C(F)(F)F)c(F)c1)N1CC=C(c2ncccc2Cl)CC1` [Compound 213]: the figures for the solubility in data set [1] (setting [2]) and in data set [1] (setting [3]) were 39.6 µM (≈ 15.8 µg/mL) and 0.8 µM (≈ 0.32 µg/mL), respectively.

On to `O=C(Nc1ccc(OC(F)(F)F)c(-c2ccccc2)c1)N1CC=C(c2ncc(CO)cc2Cl)CC1` [Compound D3], for which the IC50 on human recombinant TRPV1 turned out to be 39.8 ± 2.2 nM.
